Assay results published in patent US20260022142A1, “MACROCYCLIC IMMUNOMODULATORS” (Bristol-Myers Squibb Company, priority 2022, published 2026).
Bridge positions count the residues as written; N and C are the ends. Square brackets hold non-standard residues; d marks the D form. Peptide text beside a SMILES is read from it. * marks the point of attachment. Phe(4-COOH) = N[C@@H](Cc1ccc(C(=O)O)cc1)C(=O)O; Bip = N[C@@H](Cc1ccc(-c2ccccc2)cc1)C(=O)O; Phe(2-Cl) = N[C@@H](Cc1ccccc1Cl)C(=O)O; Phe(3-Me) = Cc1cccc(C[C@H](N)C(=O)O)c1; Phe(2-Me) = Cc1ccccc1C[C@H](N)C(=O)O; Val(3-OH) = CC(C)(O)[C@H](N)C(=O)O; hCha = N[C@@H](CCC1CCCCC1)C(=O)O; 4Pal = N[C@@H](Cc1ccncc1)C(=O)O; Cha = N[C@@H](CC1CCCCC1)C(=O)O; Ahp(2) = CCCCC[C@H](N)C(=O)O; Carboxymethyl = O=C(O)C*; Orn = NCCC[C@H](N)C(=O)O; Pra = C#CC[C@H](N)C(=O)O; Aun = NCCCCCCCCCCC(=O)O; Dab = NCC[C@H](N)C(=O)O; Dap = NC[C@H](N)C(=O)O; AEEA = NCCOCCOCC(=O)O

Target: T1, PD-1/PD-L1 interaction (PE-labeled human PD-L1-Ig binding to Jurkat cell line over-expressing human PD-1) (Homo sapiens, UniProt Q15116)
T1 construct: expressed in transfected cells; host or cells: Jurkat
Assay: Jurkat-PD-1 Cell Binding High-Content Screening Assay (CBA)
Type: cell-based
Details: Jurkat cell line over-expressing human PD-1; PE-labeled PD-L1-Ig 20 nM final; read-out: Jurkat hPD1-PDL1 IC50
Summary of the method: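 Jurkat cells stably over-expressing human PD-1 were seeded in DMEM with 10% fetal calf serum and pre-incubated with compound for 2 h at 37° C. PE-labeled human PD-L1-Ig was then added at 20 nM final for 1 hour, after which cells were fixed with paraformaldehyde, Hoechst-stained and imaged by high-content microscopy.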

T1 sequence (Q15116 25-288): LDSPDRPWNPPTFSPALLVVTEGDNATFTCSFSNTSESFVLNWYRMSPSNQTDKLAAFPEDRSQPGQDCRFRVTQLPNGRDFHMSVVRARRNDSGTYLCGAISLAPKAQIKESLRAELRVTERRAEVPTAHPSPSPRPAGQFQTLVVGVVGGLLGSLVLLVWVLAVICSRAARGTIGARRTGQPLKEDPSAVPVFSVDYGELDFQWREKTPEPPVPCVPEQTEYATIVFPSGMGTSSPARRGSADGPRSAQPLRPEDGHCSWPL

IC50 [nM] | Structure (SMILES)
49.9 | Cc1cccc(C[C@@H]2NC(=O)[C@H](CC(=O)O)NC(=O)[C@H](Cc3ccc(OCC(=O)O)cc3)NC(=O)[C@H](CN)NC(=O)CSC[C@@H](C(=O)N[C@@H](CCN)C(=O)NCCOCCOCC(=O)NCCCCCCCCCCC(=O)O)NC(=O)[C@H](CCC(=O)O)NC(=O)[C@H](C(C)C)NC(=O)[C@H](CCC3CCCCC3)NC(=O)[C@H](CCN)NC(=O)[C@@H](CC(C)C)NC(=O)[C@H](CCCN)NC(=O)[C@H](Cc3ccc(OCC(=O)O)cc3)NC(=O)[C@H](Cc3ccc(-c4ccccc4)cc3)NC(=O)[C@H](Cc3ccc(C(=O)O)cc3)NC2=O)c1 [Compound 1276] ({CH2CO}-[Dap]Y(Carboxymethyl)D[Phe(3-Me)][Phe(4-COOH)][Bip]Y(Carboxymethyl)[Orn][dL][Dab][hCha]VEC[Dab][AEEA][Aun]-OH; thioether N-14)
14.4 | Cc1cccc(C[C@@H]2NC(=O)[C@H](CC(=O)O)NC(=O)[C@H](Cc3ccc(OCC(=O)O)cc3)NC(=O)[C@H](CN)NC(=O)CSC[C@@H](C(=O)N[C@@H](CCN)C(=O)NCCOCCOCC(=O)NCCCCCCCCCCC(=O)O)NC(=O)[C@H](CCC(=O)O)NC(=O)[C@H](C(C)C)NC(=O)[C@H](Cc3ccccc3Cl)NC(=O)[C@H](CCN)NC(=O)[C@@H](CC(C)C)NC(=O)[C@H](CCCN)NC(=O)[C@H](Cc3ccc(OCC(=O)O)cc3)NC(=O)[C@H](Cc3ccc(-c4ccccc4)cc3)NC(=O)[C@H](Cc3ccc(C(=O)O)cc3)NC2=O)c1 [Compound 1277] ({CH2CO}-[Dap]Y(Carboxymethyl)D[Phe(3-Me)][Phe(4-COOH)][Bip]Y(Carboxymethyl)[Orn][dL][Dab][Phe(2-Cl)]VEC[Dab][AEEA][Aun]-OH; thioether N-14)

Second part, the compound before the results:

Structure (SMILES) | IC50 [nM]
Cc1cccc(C[C@@H]2NC(=O)[C@H](CC(=O)O)NC(=O)[C@H](Cc3ccc(OCC(=O)O)cc3)NC(=O)[C@H](CN)NC(=O)CSC[C@@H](C(=O)N[C@@H](CCN)C(=O)NCCOCCOCC(=O)NCCCCCCCCCCC(=O)O)NC(=O)[C@H](CCC(=O)O)NC(=O)[C@H](C(C)C)NC(=O)[C@H](Cc3ccccc3C)NC(=O)[C@H](CCN)NC(=O)[C@@H](CC(C)C)NC(=O)[C@H](CCCN)NC(=O)[C@H](Cc3ccc(OCC(=O)O)cc3)NC(=O)[C@H](Cc3ccc(-c4ccccc4)cc3)NC(=O)[C@H](Cc3ccc(C(=O)O)cc3)NC2=O)c1 [Compound 1274] ({CH2CO}-[Dap]Y(Carboxymethyl)D[Phe(3-Me)][Phe(4-COOH)][Bip]Y(Carboxymethyl)[Orn][dL][Dab][Phe(2-Me)]VEC[Dab][AEEA][Aun]-OH; thioether N-14) | 9.8
CCCCC[C@@H]1NC(=O)[C@H](CCN)NC(=O)[C@@H](CC(C)C)NC(=O)[C@H](CCCN)NC(=O)[C@H](Cc2ccc(OCC(=O)O)cc2)NC(=O)[C@H](Cc2ccc(-c3ccccc3)cc2)NC(=O)[C@H](Cc2ccc(C(=O)O)cc2)NC(=O)[C@H](Cc2cccc(C)c2)NC(=O)[C@H](CC(=O)O)NC(=O)[C@H](Cc2ccc(OCC(=O)O)cc2)NC(=O)[C@H](CN)NC(=O)CSC[C@@H](C(=O)N[C@@H](CCN)C(=O)NCCOCCOCC(=O)NCCCCCCCCCCC(=O)O)NC(=O)[C@H](CCC(=O)O)NC(=O)[C@H](C(C)C)NC1=O [Compound 1275] ({CH2CO}-[Dap]Y(Carboxymethyl)D[Phe(3-Me)][Phe(4-COOH)][Bip]Y(Carboxymethyl)[Orn][dL][Dab][Ahp(2)]VEC[Dab][AEEA][Aun]-OH; thioether N-14) | 47.5
C#CC[C@H](NC(=O)[C@H](CCN)NC(=O)[C@@H]1CSCC(=O)N[C@@H](Cc2ccncc2)C(=O)N[C@@H](Cc2ccc(OCC(=O)O)cc2)C(=O)N[C@@H](CC(=O)O)C(=O)N[C@@H](Cc2cccc(C)c2)C(=O)N[C@@H](Cc2ccc(OC)cc2)C(=O)N[C@@H](Cc2ccc(-c3ccccc3)cc2)C(=O)N[C@@H](Cc2ccc(OCC(=O)O)cc2)C(=O)N[C@@H](CCCN)C(=O)N[C@H](CC(C)C)C(=O)N[C@@H](CCN)C(=O)N[C@@H](CC2CCCCC2)C(=O)N[C@@H](C(C)(C)O)C(=O)N[C@@H](CO)C(=O)N1)C(=O)NCCCCCCCCCCC(=O)O [Compound 1278] ({CH2CO}-[4Pal]Y(Carboxymethyl)D[Phe(3-Me)]Y(Me)[Bip]Y(Carboxymethyl)[Orn][dL][Dab][Cha][Val(3-OH)]SC[Dab][Pra][Aun]-OH; thioether N-14) | 140
